Reference: patent US20040229251A1, “Detection of guanylyl and adenylyl cyclase activity” (The Regents of the University of Michigna, priority 2003, published 2004)

How the values were obtained:
[1] = target: T1, VC1 and ACGC domains (UniProt P26769+P30803, D1018C/K938E); assay: guanylyl cyclase activity in the presence of Mn2+, BODIPY FL-GTPγS as substrate; type: biochemical; settings: 5 mM Mg2+ and 5 mM Mn2+ vs 10 mM Mg2+
T1 construct: The soluble intracellular (C1 and C2) domains of adenylyl cyclase were utilized; The mutations to enhance guanylyl cyclase activity are in the C2 domain
Protocol: This Example describes the effect of Mn^2+ on guanylyl cyclase activity. All assays were performed at 22° C. in the presence of 2 μM BODIPY FL-GTPγS and the presence of 5 mM Mg ^2+ and 5 mM Mn^2+ or 10 mM Mg^2+ and the absence or presence of 100 μM forskolin (Fsk). Assays were performed in a 96 well, low fluorescence microtitre plate using a fluorescence plate reader. Excitation and emission wavelengths were 485 and 525 nm respectively.
The linear portion of the progress curves from data in FIG. 2B was fitted by linear regression with respect to time. The individual rates are plotted against the concentration of the VC1 domain.

[2] = tested on: wild type adenylyl cyclases (ACs); settings: addition of Mn2+ compared with Mg2+; cited from earlier work
[3] = target: T2, membrane-bound form of AC1 (adenylyl cyclase type I) expressed in sf9 cells (Homo sapiens, UniProt Q08828); assay: membrane cyclase fluorescence assay; type: biochemical
T2 construct: made in house; host or cells: sf9 cells
Protocol: The activity of a membrane-bound form of AC1 (adenylyl cyclase type I) expressed in sf9 cells was measured using the fluorescence assay described above.

T2 sequence (Q08828 whole entry): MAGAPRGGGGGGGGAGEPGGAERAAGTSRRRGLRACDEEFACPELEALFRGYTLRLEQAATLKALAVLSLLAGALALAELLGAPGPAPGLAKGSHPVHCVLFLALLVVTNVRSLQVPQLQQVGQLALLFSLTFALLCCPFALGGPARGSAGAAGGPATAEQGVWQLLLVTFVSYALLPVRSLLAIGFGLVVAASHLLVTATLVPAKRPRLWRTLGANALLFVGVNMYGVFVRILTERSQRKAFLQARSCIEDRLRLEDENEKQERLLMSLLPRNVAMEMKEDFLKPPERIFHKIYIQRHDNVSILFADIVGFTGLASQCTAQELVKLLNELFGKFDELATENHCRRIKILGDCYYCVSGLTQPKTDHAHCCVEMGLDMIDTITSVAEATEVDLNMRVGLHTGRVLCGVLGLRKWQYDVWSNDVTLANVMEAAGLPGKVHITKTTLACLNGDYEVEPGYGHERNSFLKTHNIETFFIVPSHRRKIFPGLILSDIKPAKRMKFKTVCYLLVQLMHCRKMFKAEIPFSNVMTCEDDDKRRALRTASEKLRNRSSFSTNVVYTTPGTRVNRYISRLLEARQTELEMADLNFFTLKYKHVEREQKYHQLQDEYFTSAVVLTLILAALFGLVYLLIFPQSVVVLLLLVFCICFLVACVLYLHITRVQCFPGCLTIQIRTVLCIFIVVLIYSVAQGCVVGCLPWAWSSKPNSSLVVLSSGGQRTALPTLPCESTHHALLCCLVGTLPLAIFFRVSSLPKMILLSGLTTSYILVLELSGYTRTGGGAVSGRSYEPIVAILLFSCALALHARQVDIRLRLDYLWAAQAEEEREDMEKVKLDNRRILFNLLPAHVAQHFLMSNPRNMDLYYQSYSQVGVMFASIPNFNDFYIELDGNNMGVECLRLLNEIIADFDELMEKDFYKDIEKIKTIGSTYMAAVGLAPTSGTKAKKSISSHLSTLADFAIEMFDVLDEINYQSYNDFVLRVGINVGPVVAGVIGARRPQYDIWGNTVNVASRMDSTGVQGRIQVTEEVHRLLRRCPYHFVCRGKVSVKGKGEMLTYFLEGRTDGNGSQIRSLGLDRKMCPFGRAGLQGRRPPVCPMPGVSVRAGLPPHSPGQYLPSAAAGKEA

enhancement of the forskolin-activated rate of accumulation of BODIPY-thio-pyrophosphate ([1]; 100 μM forskolin)	effect on basal activity ([1]; absence of forskolin)	SMILES	alteration of the Km for GTP [2]	effective concentration to produce the half maximal activation (EC50) [3]
over thirty-fold	enhanced basal activity significantly	[Mn+2] [Mn^2+]	at least 1000 fold	
		C=C[C@@]1(C)CC(=O)[C@]2(O)[C@@]3(C)[C@@H](O)CCC(C)(C)[C@@H]3[C@H](O)[C@H](OC(C)=O)[C@@]2(C)O1 [forskolin]		consistent with previously published values
